Assays:
[1] = system: B. subtilis 168 and mtn region mutants; conditions: Bacillus subtilis; reference [5]; cited from earlier work
[2] = system: Strain BSHP7014 (mtnW:lacZ amyE::pxyl mtnXYZ); experiment: Toxicity of MTR for BSHP7014 strain (paper disc on ED1 minimal medium plates); type: cell-based, Bacillus subtilis
Protocol: Toxicity of MTR for BSHP7014 strain. Strain BSHP7014 (mtnW:lacZ amyE::pxyl mtnXYZ) was grown on ED1 minimal medium plates in the presence of sulfate as sulfur source (panel A) or in the absence of any added sulfur source (agar as sole sulfur source, panel B). Xylose was added to the medium in order to trigger the expression of mtnXYZ from the pxyl promoter, 10 μl of methionine (met) or MTR was adsorbed on paper discs and plates were incubated over-night at 37° C. Methionine was used as a control for growth and/or toxicity of the sulfur source.
Two genes in the pathway are dispensable, mtnV and mtnX. The first one encodes a transaminase of which there are nine putative paralogs in the genome of B. subtilis (YwfG, AlaT, AspB, PatA, YhdR, YdfD, PatB, YisV, and HisC). In the same way, MtnX (YkrX) is a member of the phosphatase family pfam00702 ([12], FIG. 6), and therefore of a ubiquitous class of hydrolases (several phosphatase genes, in particular are present in the genome of B. subtilis). This is likely to account for the lack of phenotype under our growth conditions. […] In contrast, we discovered that MTR is toxic when the distal genes are present (when used as sole sulfur source or in the presence of sulfate, see FIG. 7). Because of the weak phenotype of a mtnZ mutant and the absence of phenotype of a mtnX mutant, we can be confident that MtnY acts before MtnW (this is a common feature in operons, where it is generally observed that the more distal genes code for proteins acting in the more proximate steps of the pathway).
Bacterial strains and plasmids, and growth media: E. coli and B. subtilis strains as well as plasmids used in this work are listed in Table 3. E. coli TG1 and XL1-Blue were used for cloning experiments (TG1 for single cross-over recombination and XL1-Blue for double cross-over recombination). Despite the fact that there are no public regulations yet in this domain in China, all experiments were performed in accordance with the European regulation requirements concerning the contained use of Genetically Modified Organisms of Group-I (French agreement N^o 2735). […] In the latter case, 10 [μl of the sulfur source under investigation was applicated onto paper discs (MTR, 200 mM stock solution and methionine, 100 mM stock solution) deposited at the center of the plate, after bacteria had been uniformly spread at the surface of the plate, and growth was measured around the disK. […] The optical density (OD) of bacterial cultures was measured at 600 nm. […]

[3] = system: B. subtilis 168 and mtn region mutants; experiment: Growth on MTR as sole sulfur source (ED1 minimal medium plates); type: cell-based, Bacillus subtilis; conditions: mtnX mutant, strain BFS1852, in the absence of IPTG

## CSC[C@@H](O)[C@@H](O)[C@@H](O)C=O [MTR, methylthioribose]
[1]
  MTR as sulfur source: excellent sulfur source
[2]; mtnU mutant, mtnY functional
  Toxicity of MTR to the cell: toxic
[2]; mtnW inactivated with a polar effect on the distal genes
  Influence of MTR on sulfate supplemented plates: lack of influence
[2]; mtnW mutant with distal genes mtnXYZ present, MTR as sole sulfur source or in the presence of sulfate
  Toxicity of MTR to the cell: extremely toxic
[3]
  Growth on MTR as sole sulfur source: failed to grow

From patent publication US20040019066A1, “Methionine salvage pathway in bacillus” (priority 2002, published 2004)
